According to a melting point compilation (Tetko et al.; mined from patent text by program, amines drawn as free bases though some values may be those of a salt):

Compared with `CC1(C)OC(=O)Nc2ccc(-c3ccc(C#N)o3)cc21`, `CCOC(=O)c1ccccc1-c1ccc2nc[nH]c(=O)c2c1` is lower in melting point: 257 to 260 °C for the first, 151 to 158 °C for the second.

First: CCC(C)(C#N)NC(=O)Cc1c(C)cc(C)cc1C (configuration not stated)
Second: CCOC(=O)C(C)(C)CCCCOc1cc(C)c(N=Nc2ccc([N+](=O)[O-])cc2)c(C)c1
The melting point of the first is higher: 155 to 157 °C for the first, 89 to 90 °C for the second.

Compared with `COc1cc2[nH]c(N(C)Cc3cccc(OCCO)c3)nc(=O)c2c(OC)c1OC`, `CCCCNc1nc(-c2cc(OC)c(OC)c(OC)c2)nc2sc(C#N)c(C)c12` is higher in melting point: 146 to 148 °C for the first, 192 to 194 °C for the second.

First: CNC(=O)Cc1ccccc1[N+](=O)[O-]
Second: CCC(CSC#N)Nc1ccc(Cl)cc1[N+](=O)[O-] (configuration not stated)
The melting point of the first is higher: 147 °C for the first, 126 to 128 °C for the second.

Compared with `CNCCN1CCn2c1nc1ccccc12`, `CCOCCn1c(CN2CCCN(C)CC2)nc2ccccc21` is higher in melting point: 60 to 63 °C for the first, 119 to 122 °C for the second.

First: CN1CCC2(CCc3cc4ccccc4n3C2)C1 (configuration not stated)
Second: Cc1c(Br)cccc1N1CCn2c(cc3ccccc32)C1=O
The melting point of the first is lower: 55 to 58 °C for the first, 178 to 180 °C for the second.

First: COc1cc(Cl)cc(C)c1Nc1nc2c(Cl)ccc(C(O)(C(C)(C)C)C(C)(C)C)c2n1C
Second: CCOC(=O)c1ncn2c1CN(Cc1ccc(OC)cc1OC)C(=O)c1c(Cl)cccc1-2
The melting point of the first is higher: 246 to 248 °C for the first, 129 to 130 °C for the second.

First: NNC(=O)c1cnc2n(c1=O)CCCCC2
Second: O=C(c1cccs1)c1cnn2c(-c3cccc(N4CCCC4=O)c3)ccnc12
The melting point of the first is lower: 184 to 186 °C for the first, > 200 °C for the second.

First: CCCNc1ccc(-c2nc(=O)c3ccccc3s2)cn1
Second: CCCn1c(NC(=O)c2ccccc2)nc2ccccc2c1=O
The melting point of the first is higher: 210 to 211 °C for the first, 133 to 135 °C for the second.

First: Cc1ccc(S(=O)(=O)OC[C@H]2OC(=O)N[C@H]2Cc2ccccc2)cc1
Second: CN1CC(c2cccc(Cl)c2)=C(c2ccc(S(C)(=O)=O)cc2)C1=O
The melting point of the first is lower: 149 to 150 °C for the first, 170 to 172 °C for the second.

First: O=C(N[C@H]1C(=O)N[C@@H]1CCO)OCc1ccccc1
Second: Cc1cc2c(=O)[nH][nH]c(=O)c2n1Cc1ccccc1
The melting point of the first is lower: 120 to 121 °C for the first, 322 to 324 °C for the second.

First: Oc1ccc(Cc2cnc3c(-c4cc(-c5ccccc5)cs4)cnn3c2O)cc1
Second: Oc1ccc2cc(-c3nc(-c4ccccc4)sc3Br)ccc2c1Br
The melting point of the first is higher: 287 to 293 °C for the first, 198 to 200 °C for the second.

First: COc1ccc(NC(=NC#N)NC(NC(=O)Cc2ccc(OC)c(OC)c2)C(C)(C)C)c(OC)n1 (configuration not stated)
Second: COc1ccc(CC(=O)N[C@@H](C)CO)cc1OC
The melting point of the first is higher: 162 to 163 °C for the first, 122 to 125 °C for the second.

Compared with `CC(=O)c1cccc2c1NCC2`, `Nn1cccc1C(=O)c1ccccc1F` is lower in melting point: 83 to 85 °C for the first, 44 to 47 °C for the second.

First: CN1C(=O)C(NC(=O)Nc2ccc(F)cc2)C(=O)N(C23CC4CC(CC(C4)C2)C3)c2ccccc21 (configuration not stated)
Second: CNCCCN(C)c1ccc2c(C(=O)NCC34CC5CC(CC(C5)C3)C4)c(Cl)ccc2n1
The melting point of the first is higher: 239 to 241 °C for the first, 195 to 200 °C for the second.

First: Cc1cccc(-c2nc(N)c3ccccc3n2)n1
Second: COCCc1nc2c(N)nc3ccccc3c2n1Cc1ccccc1
The melting point of the first is lower: 201 °C for the first, 202 to 204 °C for the second.

First: Cc1oc(-c2ccccc2)nc1CCOc1ccc(CCC2OC(=O)NC2=O)cc1 (configuration not stated)
Second: CCCc1oc(-c2ccccc2)nc1COc1ccc(COc2cccc(CC(=O)O)c2)cc1
The melting point of the first is higher: 193 to 194 °C for the first, 115 to 116 °C for the second.

First: CCCCc1ncc(C=O)n1Cc1ccc(C(=O)OC)c(Cl)c1Cl
Second: CCCCc1ncc(/C=C(\Cc2cccs2)C(=O)O)n1Cc1ccc([N+](=O)[O-])cc1
The melting point of the first is lower: 94 to 96 °C for the first, 198 to 200 °C for the second.

First: N=C(N)NCCC[C@@H](NC(=O)C(c1ccccc1)c1ccccc1)C(=O)NCc1ccc(CCC(N)=O)cc1
Second: CC(Cc1cc2ccccc2[nH]1)(NC(=O)OC1C2CC3CC(C2)CC1C3)C(=O)NCC(NC(=O)CCC(=O)OCc1ccccc1)c1ccccc1 (configuration not stated)
The melting point of the first is higher: 207 to 208 °C for the first, 109 to 113 °C for the second.

First: C[Si](C)(C)NC(=O)C(Cl)(Cl)Cl
Second: CCNC(=S)c1c(Cl)cccc1[Si](C)(C)C
The melting point of the first is lower: 75 to 85 °C for the first, 158 to 159 °C for the second.

First: C=CCNC(=O)c1ccc(-c2ccc3nnn(Cc4ccc5ncccc5c4)c3n2)cc1F
Second: O=C1CC(c2cccc(-n3cnnn3)c2)=Nc2ccc(-c3ccccc3F)cc2N1
The melting point of the first is lower: 162 to 164 °C for the first, 179 to 180 °C for the second.

First: O=C1c2ccccc2C(=O)N1OC1C=CCCC1 (configuration not stated)
Second: O=C1CC(CN2C(=O)c3ccccc3C2=O)=Nc2ccccc2N1
The melting point of the first is lower: 87 °C for the first, 244 to 246 °C for the second.

First: COC(=O)c1ccc2c(C(C(=O)O)c3ccc4c(c3)OCO4)cn(C)c2c1 (configuration not stated)
Second: Cc1nc(-c2cccnc2)sc1-c1ccnc(Nc2ccc3c(c2)OCO3)n1
The melting point of the first is higher: 194 to 198 °C for the first, 187 to 188 °C for the second.

First: CN1CC(CN(CCC#N)C(N)=O)CC2c3cccc4[nH]cc(c34)CC21 (configuration not stated)
Second: COC12CC(CNC(=S)NC(C)=O)CN(C)C1Cc1cn(C)c3cccc2c13 (configuration not stated)
The melting point of the first is higher: 252 to 254 °C for the first, 170 to 172 °C for the second.

First: O=C(c1c(Cl)cccc1Cl)P(=O)(c1ccccc1)c1ccccc1
Second: NCC1Cc2cc(-c3ccccc3)cc(-c3ccccc3F)c2O1 (configuration not stated)
The melting point of the first is lower: 156 to 158 °C for the first, > 250 °C for the second.

Compared with `COC(=O)COc1ccc(OCC(=O)OC)cc1`, `COC(=O)C(CCl)NC(=O)c1c(F)cccc1F` (configuration not stated) is lower in melting point: 96 to 98 °C for the first, 93.5 °C for the second.

First: Cc1ccc(C(=S)C=CC(=O)Nc2c(C)cccc2C)cc1
Second: CCOC(=O)c1ccc(C#CC(=O)Nc2ccccc2)cc1
The melting point of the first is higher: 216 to 217 °C for the first, 114 to 115 °C for the second.

Compared with `Cc1ccc(S(=O)(=O)NC(=O)OCCc2ccc(-n3c(CCC(=O)N4CCCC4)nc4cc(C(F)(F)F)c(Cl)cc43)cc2)cc1`, `CS(=O)(=O)c1ccc(-n2nc(C(F)(F)F)cc2-c2ccc(-c3ccco3)cc2)cc1C(F)(F)F` is higher in melting point: 98 to 105 °C for the first, 159 to 160 °C for the second.

Compared with `Nc1ncccc1C(=O)NCC1CCN(C[C@H]2COc3ccc4[nH]ccc4c3O2)CC1`, `OC(CN1CCC(c2c[nH]c3ccccc23)CC1)C1COc2ccccc2O1` (configuration not stated) is higher in melting point: 104 to 106 °C for the first, 145 °C for the second.

First: CCCCCCCCCCCCCCCCOc1cc(C(=O)OCC)cc(C(=O)OCC)c1
Second: CCCCCCCC(CCCCCC)CCOC(=O)c1ccccc1N=NN1CCOCC1 (configuration not stated)
The melting point of the first is higher: 45 °C for the first, 40 to 42 °C for the second.

Going from `Fc1ccc(Cn2c(NC3CCN(CCNc4ncccn4)CC3)nc3cncnc32)cc1` to `O=c1cc(-c2ccc3[nH]ncc3c2)oc2ncc(CN3CCOCC3)cc12`, the melting point rises from 164 °C to 293 °C.

Compared with `Clc1nc(SCc2ccccc2)ncc1Br`, `CCCCc1nc2ccccc2c(=O)[nH]1` is higher in melting point: 56 to 57 °C for the first, 153 to 155 °C for the second.

First: Cc1cc(-c2nnc3c4ccccc4c(OCc4nncn4C)nn23)no1
Second: COc1cc(Cl)c(C(=O)c2ccccc2F)c(OC)c1
The melting point of the first is higher: 261 to 263 °C for the first, 88 to 92 °C for the second.

Compared with `CCOC(=O)c1ccccc1C=C(C)C=CC=C(C)CCC=C(C)C`, `CC(=O)N(O)C(C)/C=C/c1cccc(Oc2ccc(Cl)cc2)c1` (configuration not stated) is higher in melting point: 47 to 48 °C for the first, 86 to 87 °C for the second.

Compared with `N#CC(=Cc1cccnc1)c1ccc(Cl)cc1`, `O=C(Cc1c(C(=O)c2ccccc2)[nH]c2cc(Cl)ccc12)NCCO` is higher in melting point: 141 to 143 °C for the first, 178 to 180 °C for the second.

Compared with `CN1CCN(S(=O)(=O)CCCOc2ccc3ncnn3n2)CC1`, `CC(C)(COc1ccc2nccn2n1)CS(N)(=O)=O` is higher in melting point: 140 to 141 °C for the first, 165 to 167 °C for the second.

First: CC(=O)C1=CCC2C3CCC4=CC(=O)CCC4(C)C3=CCC12C (configuration not stated)
Second: CC(C)N1N=C(c2ccc3c(c2)CCN(C2CCC2)CC3)CCC1=O
The melting point of the first is higher: 200 to 201 °C for the first, 140 to 141 °C for the second.

Compared with `COc1ccc(N2CCN(CCC3OCCc4cc(C(N)=O)ccc43)CC2)cc1` (configuration not stated), `Cc1ccc(C(=O)C2=C(O)C(=O)N(c3ccc(C)nn3)C2c2ccc(N3CCN(CCN(C)C)CC3)cc2)cc1` (configuration not stated) is higher in melting point: 180 to 182 °C for the first, 185 °C for the second.

First: COc1cc2c(c(Cl)c1Cl)C(=O)C(C)(c1ccc(Br)cc1)C2 (configuration not stated)
Second: CN=Cc1ccc(-c2ccc(OC)c(Br)c2)cc1
The melting point of the first is higher: 200 to 203 °C for the first, 115 to 117 °C for the second.

First: COc1ccc(C=O)c2cccnc12
Second: O=C1NC[C@@H](c2ccccc2)O1
The melting point of the first is higher: 121 to 122 °C for the first, 86 to 87 °C for the second.

Compared with `CN1CCN(C2CC(=O)c3ccc(F)cc32)CC1` (configuration not stated), `CN1CCN(c2ccc3c4c(cccc24)C(=O)N(O)C3=O)CC1` is higher in melting point: 102 to 103 °C for the first, 326 to 329 °C for the second.

Compared with `CNC(=O)Nc1cccc(C(=S)NC(C)C)c1`, `Cc1cc2c(s1)S(=O)(=O)N(C)C(=O)C2C(=O)Nc1ccccc1` (configuration not stated) is higher in melting point: 175 to 178 °C for the first, 184 to 185 °C for the second.

First: NC(=Nc1ccc(CCNC(=O)c2cc(N)ccc2O)cc1)c1cccs1
Second: CCOC(=O)CC(=O)c1cc(F)c(O)nc1Nc1ccc(F)cc1F
The melting point of the first is higher: > 260 °C for the first, 161 to 162 °C for the second.

First: CCSc1nc(O)nn1C(C)C
Second: Cc1cc(NC(=O)c2cc(C#N)cc(C)n2)ccn1
The melting point of the first is lower: 109 to 114 °C for the first, 302 °C for the second.

Compared with `CN1C(=O)N(c2cc(Cl)cc(Cl)c2)C(=O)[C@]12CN(Cc1ccccc1)C[C@H]2c1ccc(Br)cc1` (relative stereo), `COc1ccc(S(=O)(=O)N2CCc3cccc(-c4ccc(F)cc4)c32)cc1` is lower in melting point: 204 °C for the first, 178 to 179 °C for the second.

First: NC(CCNc1ccc(C(O)(C(F)(F)F)C(F)(F)F)cc1)c1ccc(F)cc1 (configuration not stated)
Second: COc1ccc(-c2noc(C(F)F)c2-c2ccc(S(N)(=O)=O)cc2)cc1
The melting point of the first is lower: 136 to 137 °C for the first, 182 to 183 °C for the second.

Compared with `CCCCCN1CCN(O)C1=O`, `C=CCN(C)S(=O)(=O)CC(=O)C=C(C)N` is higher in melting point: 60 to 61 °C for the first, 86 to 89 °C for the second.

First: CC(C)=C(C#N)C(=O)NCc1ccc(Cl)c(Cl)c1
Second: O=C(Nc1nc2ccc(OCc3c(Cl)cccc3Cl)cc2[nH]1)C1CC1
The melting point of the first is lower: 131 to 132 °C for the first, 133 to 135 °C for the second.

Compared with `C#Cc1ccc(S(N)(=O)=O)s1`, `CSc1sc(-c2cn[nH]c2)c2c1C(=O)CC(C)(C)C2` is higher in melting point: 114 to 116 °C for the first, 213 to 215 °C for the second.

Compared with `O=C(Nc1cccc2c1C(=O)c1c-2n[nH]c1-c1ccc(C(=O)NN2CCCC2)s1)NN1CCOCC1`, `COC(=O)[C@@H]1C/C=C/COc2ccc(cc2)C[C@H](NC(=O)OC(C)(C)C)C(=O)N[C@@H](C(C)C)C(=O)N1` is lower in melting point: 213 to 215 °C for the first, 105 to 107 °C for the second.

Compared with `CCOP(=O)(CNCc1ccnc(-c2cc(C(C)(C)C)c(O)c(C(C)(C)C)c2)c1)OCC`, `COc1ccc(C2CCN(c3c(C)c(C)c4c(c3C)C(c3ccc(C(C)C)cc3)C(C)(C)O4)CC2)cc1OC` (configuration not stated) is higher in melting point: 66 to 69 °C for the first, 129 to 132 °C for the second.
